According to patent publication US20120003270A1, “6-SUBSTITUTED ISOFLAVONOID COMPOUNDS AND USES THEREOF” (priority 2008, published 2012):

Legend:
eNOS = eNOS mRNA expression in HCAECs (real-time PCR); type: cell-based, human; conditions: 10 μM, 24 hr
Procedure: HCAECs were grown as described above. Because cell viability was less than 100% at 30 and 100 μM, eNOS experiments were conducted at one concentration (10 μM). After incubation, total RNA was extracted using TRI reagent (Sigma, St Louis, Mo., USA), following the manufacturer's protocol. RNA was quantitated and normalized to 100 ng/μl using the SYBR Green II assay (Molecular Probes, Eugene, Oreg., USA) before being reverse transcribed using iScript (Bio-Rad, Hercules, Calif., USA). eNOS (sense 5′-CCATCTACAGCTTTCCGGCGC-3′ and antisense 5′-CTCTGGGGTGGCCTTCAGCA-3′) and 18S (sense 5′-CGGCTACCACATCCAAGGAA-3′ and antisense 5′-GCT GGA ATT ACC GCG GCT-3′) mRNA levels were determined by real-time PCR using iQ SYBR Green Supermix (Bio-Rad) in an iCycler iQ RealTime thermocyler detection system (Bio-Rad Laboratories). The cycling parameters were 95° C. for 30 seconds, 62° C. for 30 seconds, and 72° C. for 30 seconds for 40 cycles, and real-time data was collected at each cycle. There were six replicates.

[1] = test system: low density lipoprotein (LDL); experiment: Cu2+-induced oxidation of LDL (FOX assay); type: biochemical; parameters: lipid peroxide formation: unit not given here
Procedure: Blood was collected by venipuncture and plasma separated by centrifugation. LDL was then isolated from plasma using a 4-step sodium chloride density gradient and ultracentrifuged at 200,000 g for 20 hours at 4° C. The collect LDL was purified by passage through gel filtration PD10 column to remove excess salt and EDTA, and stored in the dark at 4° C. to prevent auto-oxidation and used with two weeks of isolation. The LDL cholesterol content was measure using a standard enzymatic method and protein concentration determined by the Lowry method using BSA as the standard.
On the day of each experiment a 2 mL aliquot of LDL was passed through a second PD10 column and diluted with chelex treated PBS (100 mM) to give a standard protein concentration of 0.1 mg/mL, ie final concentration per reaction. Oxidation reactions were initiated by the addition of freshly prepared Cu^2+ solution, such that the final concentration of CuSO4 was 5 μM. […] The extent of lipoprotein oxidation was determined by measuring the formation of lipid-peroxides on aliquots removed every 30-minute over a 3-hour period. Peroxides were determined at each time point by the ferrous oxidation-xylenol orange (FOX) assay using standard hydrogen peroxide curve (5 to 200 μM). Compound (1) was examined in at least two separate experiments performed on separate days.

TXA2 = TXA2 synthesis in RA-stimulated U937 cells; type: cell-based, human; conditions: A23187 0.5 μM, 30 min
Procedure: U937 cells were thawed and resuspended in RPMI and 10% FCS at 2×10^5 cells per ml. The cells were incubated in 5% CO2 at 37° C. and expanded in growing culture to at least 6.4×10^7 total cells. The cells were then resuspended in fresh medium and cultured with 5 μM retinoic acid (RA) at 2×10^5 cells per ml for a further 3 days (72 h). RA treated cells were washed 2× in serum-free RPMI and resuspended in serum-free medium at 5×10^6 cells per ml. The cells were aliquotted into Teflon tubes at 1 ml per tube. Working stock solutions of compounds (1) and (3) were prepared at 0.1 mM, 1 mM and 10 mM as described above. For each working dilution, 10 μl was added to 1 ml cells to achieve a final concentration of 0 (DMSO alone), 1, 10, and 100 μM for each test compound. Cells were incubated in triplicate with each concentration of test compound for 15 min at 37° C. After 15 min pre-incubation, each 1 ml tube of cells received 5 μl of a […] solution of the calcium ionophore A23187 (to achieve 0.5 μM A23187). Incubation at 37° C. was continued for a further 30 min. After incubation, supernatants were collected by centrifugation at 2000 rpm for 10 min and stored at −20° C. until required for assay.

IFN-γ and IL-6 = experiment: Splenocyte cytokine production (ELISA); type: cell-based, mouse; conditions: 10 μM, 3 day incubation, culture supernatant
Procedure: Male Skh-1:HR1 (hairless) mice, approximately six weeks old were killed by cervical dislocation. Single cell suspensions were made from the spleen and erythrocytes were lysed in buffer (0.14M NH4Cl, 17 mM Tris, pH 7.2). The remaining splenocytes were cultured in RPMI-1640 (Gibco) supplemented with 10% (v:v) FBS, 200 mM L-glutamine, penicillin/streptomycin and […] 2-mercaptoethanol. Splenocytes were added to quadruplicate wells containing either concanavalin A (ConA, Sigma-Aldrich—0.4 μg/well), LPS (Sigma-Aldrich—1 μg/well) or no mitogen, as well 10 μM of test compound in DMSO. Samples were analysed after a 3 day incubation at 37° C. in 5% CO2 in air. Methylthiazoletetrazolium (MTT) is bioreduced by viable cells into a coloured formazan product that is soluble in DMSO. Thus the quantity of formazan product is directly proportional to the number of living cells in culture, and can be measured using a spectrophotometer at 570 nm. MTT was added to each well, incubated for a further 4 hrs and then colour developed with 0.04N HCl in isopropanol. Culture supernatants were stored after collection at −80° C. and both T and B cells analysed by ELISA (BD Biosciences) for IFN-γ (a Th-1 cytokine) and for T cells alone, IL-6 (a Th-2 cytokine).

Structure (SMILES): O=C(O)C1CCCN1Cc1cc2c(cc1O)OCC(c1ccc(O)cc1)=C2 (centres unmarked) [Compound (3)]
- Average increase in the expression of eNOS (eNOS; average of experiments): 325%
- Increase in expression of eNOS mRNA relative to control cells (eNOS; EXPT 1): 372 ± 138% (0.00001)
- Increase in expression of eNOS mRNA relative to control cells (eNOS; EXPT 2): 277 ± 212 (0.002)
- lipid peroxide formation ([1]; Compound (3) 10 μM + Cu++ 5 μM, no LDL, 0 min): 2.36 ± 5.25
- lipid peroxide formation ([1]; Compound (3) 10 μM + Cu++ 5 μM, no LDL, 30 min): −3.75 ± 3.02
- lipid peroxide formation ([1]; Compound (3) 10 μM + Cu++ 5 μM, no LDL, 60 min): −1.38 ± 2.64
- lipid peroxide formation ([1]; Compound (3) 10 μM + Cu++ 5 μM, no LDL, 90 min): −0.82 ± 2.31
- lipid peroxide formation ([1]; Compound (3) 10 μM + Cu++ 5 μM, no LDL, 120 min): −2.48 ± 2.55
- lipid peroxide formation ([1]; Compound (3) 10 μM + Cu++ 5 μM, no LDL, 150 min): −6.22 ± 6.83
- IC50 ([1]; LDL 0.1 mg/mL, CuSO4 5 μM, read-out: IC50, concentration at which 50% of the LDL oxidation was inhibited): 500 nM
- lipid peroxide formation ([1]; LDL 0.1 mg/ml + compound (3) 0.01 μM + Cu++ 5 μM, 0 min): 5.55 ± 0.22
- lipid peroxide formation ([1]; LDL 0.1 mg/ml + compound (3) 0.01 μM + Cu++ 5 μM, 30 min): 2.85 ± 2.80
- lipid peroxide formation ([1]; LDL 0.1 mg/ml + compound (3) 0.01 μM + Cu++ 5 μM, 60 min): 25.92 ± 13.53
- lipid peroxide formation ([1]; LDL 0.1 mg/ml + compound (3) 0.01 μM + Cu++ 5 μM, 90 min): 88.97 ± 3.03
- lipid peroxide formation ([1]; LDL 0.1 mg/ml + compound (3) 0.01 μM + Cu++ 5 μM, 120 min): 131.94 ± 4.81
- lipid peroxide formation ([1]; LDL 0.1 mg/ml + compound (3) 0.01 μM + Cu++ 5 μM, 150 min): 137.86 ± 26.03
- lipid peroxide formation ([1]; LDL 0.1 mg/ml + compound (3) 0.1 μM + Cu++ 5 μM, 0 min): 5.62 ± 0.85
- lipid peroxide formation ([1]; LDL 0.1 mg/ml + compound (3) 0.1 μM + Cu++ 5 μM, 30 min): 3.24 ± 1.93
- lipid peroxide formation ([1]; LDL 0.1 mg/ml + compound (3) 0.1 μM + Cu++ 5 μM, 60 min): 18.89 ± 7.84
- lipid peroxide formation ([1]; LDL 0.1 mg/ml + compound (3) 0.1 μM + Cu++ 5 μM, 90 min): 73.79 ± 1.40
- lipid peroxide formation ([1]; LDL 0.1 mg/ml + compound (3) 0.1 μM + Cu++ 5 μM, 120 min): 138.28 ± 2.75
- lipid peroxide formation ([1]; LDL 0.1 mg/ml + compound (3) 0.1 μM + Cu++ 5 μM, 150 min): 155.66 ± 21.85
- lipid peroxide formation ([1]; LDL 0.1 mg/ml + compound (3) 1.0 μM + Cu++ 5 μM, 0 min): 7.38 ± 2.69
- lipid peroxide formation ([1]; LDL 0.1 mg/ml + compound (3) 1.0 μM + Cu++ 5 μM, 30 min): −2.09 ± 9.59
- lipid peroxide formation ([1]; LDL 0.1 mg/ml + compound (3) 1.0 μM + Cu++ 5 μM, 60 min): 7.21 ± 4.53
- lipid peroxide formation ([1]; LDL 0.1 mg/ml + compound (3) 1.0 μM + Cu++ 5 μM, 90 min): 7.13 ± 3.76
- lipid peroxide formation ([1]; LDL 0.1 mg/ml + compound (3) 1.0 μM + Cu++ 5 μM, 120 min): 11.69 ± 7.30
- lipid peroxide formation ([1]; LDL 0.1 mg/ml + compound (3) 1.0 μM + Cu++ 5 μM, 150 min): 79.63 ± 27.82
- lipid peroxide formation ([1]; LDL 0.1 mg/ml + compound (3) 10 μM + Cu++ 5 μM, 0 min): 1.62 ± 4.14
- lipid peroxide formation ([1]; LDL 0.1 mg/ml + compound (3) 10 μM + Cu++ 5 μM, 30 min): 2.59 ± 2.96
- lipid peroxide formation ([1]; LDL 0.1 mg/ml + compound (3) 10 μM + Cu++ 5 μM, 60 min): 5.65 ± 2.55
- lipid peroxide formation ([1]; LDL 0.1 mg/ml + compound (3) 10 μM + Cu++ 5 μM, 90 min): 4.40 ± 1.13
- lipid peroxide formation ([1]; LDL 0.1 mg/ml + compound (3) 10 μM + Cu++ 5 μM, 120 min): 3.57 ± 2.23
- lipid peroxide formation ([1]; LDL 0.1 mg/ml + compound (3) 10 μM + Cu++ 5 μM, 150 min): 4.15 ± 2.87
- TXB2 (TXA2; 1 μM): 18.434 ± 0.367 pg
- TXB2 (TXA2; 10 μM): 26.276 ± 9.76 pg
- TXB2 (TXA2; 100 μM): 12.668 ± 3.506 pg
- Effect on cytokine synthesis (INF-γ, IL-6) (IFN-γ and IL-6): did decrease the cytokines produced by T cells in particular
